Test results published in paper PMC5560554, “Targeting of CDK9 with indirubin 3’-monoxime safely and durably reduces HIV viremia in chronically infected humanized mice” (PLoS ONE, 2017).
Several values for one entry are separate records, joined by “and”; a condition that tells them apart may be missing. Identical values can stand only once. Entries after “also recorded” stand apart in the source; their conditions may differ. Like-named read-outs stand apart in the source and are kept apart here.

How the values were obtained:
[1] = tested on: CDK9; parameters: method as in PMID 16284457; conditions: cited from earlier work
[2] = Toxicity study in BALB/c mice (daily i.p. 14 days; blood counts and chemistry profiles); format: in vivo; conditions: daily i.p. doses of up to 20 mg/kg for 14 days
Method: IM (Cayman Chemicals, Ann Arbor, MI) was dissolved in 10% Cremophor EL (Sigma, St. Louis, MO). Adult, female BALB/c mice were treated with IM (2.5, 5, and 20 mg/kg; n = 5 per dose) or its vehicle (10% Cremophor EL; n = 5) daily, via intraperitoneal (i.p.) injections, for 14 days. We used mice from a single sex to reduce potential variability of the data, although gender is not expected to have an effect on the toxicity of IM. On day 14, animals were anesthesized with ketamine-xylazine (100-150mg/kg Ketamine + 10-16mg/kg Xylazine) and, after confirming (via toe pinch) that a deep surgical plane of anesthesia had been reached, blood was collected by cardiac puncture. Blood samples were submitted for measurements of blood chemistry profiles and of blood counts.
There is currently limited information on IM toxicity. […] To better evaluate the toxicity of IM we conducted toxicity studies following standard protocols. We used BALB/c mice because, unlike NSG mice, are fully immunocompetent and thus more suitable for assessing hematological toxicities. BALB/c mice were treated with IM (2.5, 5 and 20 mg/kg; n = 5 per dose) or its vehicle (n = 5) daily, via i.p. injections, for 14 days. […] Mice were monitored daily for morbidity and mortality. […] The other 19 mice remained healthy and had no evidence of morbidity. […] Creatinine levels below reference ranges may be due to sample hemolysis. […]

[3] = tested on: HIV BaL; experiment: Antiviral activity of IM during chronic HIV infection in HSC-NSG mice; format: in vivo
From the text: NSG mice were humanized at the age of 2–3 days, following whole body irradiation ([…]) and hepatic injection of 1.2x10^5 human cord blood-derived CD34+ cells (Lonza, Walkersville, MD). At week 12, mice were checked for human cell reconstitution by double staining with FITC-conjugated antihuman CD45 antibody (BD Pharmingen) and APC-conjugated antimouse CD45 antibody (BD Pharmingen). Mice were considered successfully transplanted if they had ≥ 5% of human CD45+ cells in peripheral blood. Successfully transplanted mice were infected, via i.p. injection, with 15,000 TCID50 units of the CCR5-tropic HIV reference strain BaL.
Plasma HIV RNA levels were quantified by an in-house real-time RT PCR using HIV Gag primers SK38/SK39 and SYBR green dyes, as in our previous studies. The assay has a sensitivity of 150 copies HIV RNA/40μL plasma. Percentages of human CD4+ and CD8+ T cells were determined by flow cytometry analysis using fluorochrome labeled antibodies against human CD4 (clone SK3), CD8 (SK1), CD3 (clone SK7), and CD45 (clone 2D1) (BD Biosciences). Data were acquired in a BD FACSCalibur flow cytometer and analyzed using FLowJo software (v. 9.7.7). CD4/CD8 ratios were calculated and plotted using GraphPad Prism 5.0 software.
We next evaluated the antiviral activity of IM in HSC-NSG mice chronically infected with HIV. For this, 12-week old HSC-NSG mice were infected with HIV BaL. Five weeks after infection, animals initiated daily i.p. treatment with IM (5 and 20 mg/kg/day) or vehicle control for 15 weeks. Each experimental and control group had 5 mice. Viral replication was monitored by measuring HIV RNA in plasma by RT-PCR. Blood CD4/CD8 ratios were measured by Flow Cytometry. Mice treated with 5 mg/kg dose had modest, but significant, declines in plasma HIV RNA during the 15-week treatment period (Fig 2a). By the end of the study, plasma HIV RNA levels were 2.1 log10 units lower in mice treated with 5 mg/kg IM compared to controls. The CD4/CD8 ratios increased to similar levels in IM (5 mg/kg) and control groups for most of the study duration.
Fig 2 IM reduces HIV viremia in HSC-NSG chronically infected with HIV. Twelve-week old HSC-NSG mice were infected with HIV BaL. Five weeks after infection, treatment was initiated at IM doses of 0 (vehicle alone) and 5 mg/kg/day. Each group had 5 mice. Treatment was continued for 15 weeks. Blood samples collected at the indicated time points were evaluated for plasma HIV RNA levels by quantitative RT-PCR (A), and for CD4/CD8 ratios by Flow Cytometry Analysis (B). At each time point, data were tested for statistical significant differences by Mann-Whitney U tests (GraphPad Prism Software, La Jolla, CA); P < 0.05 was considered significant. Shaded boxes indicate duration of treatment.

[4] = in vivo; cited from earlier work
[5] = tested on: macrophages; conditions: cited from earlier work
[6] = tested on: primary lymphocytes; conditions: cited from earlier work
[7] = tested on: HIV; parameters: method as in PMID 24401082; conditions: cited from earlier work
[8] = tested on: HIV; parameters: method as in PMID 16284457; conditions: lymphocytes; read-out: EC50 for inhibition of HIV in vitro; cited from earlier work
[9] = tested on: HIV; parameters: method as in PMID 16284457; conditions: macrophages; read-out: EC50 for inhibition of HIV in vitro; cited from earlier work
[10] = HIV BaL, 20 mg/kg/day i.p., 5 weeks, limited data (S1 Fig)

O=C1Nc2ccccc2/C1=C1/Nc2ccccc2/C1=N\O [IM, Indirubin 3’-monoxime]
inhibition of CDK9 relative to other CDKs [1]: inhibits CDK9 more potently than other CDKs
hematologic, renal or liver toxicity [2]: not associated with hematologic, renal or liver toxicity; also recorded: no hematologic, liver or renal toxicity
human T cells in blood ([3]; 20 mg/kg/day i.p., euthanized after 5 weeks of treatment): progressive losses in human T cells in blood
CD4/CD8 ratios by the end of the study vs control ([3]; HIV BaL chronic infection, 5 mg/kg/day i.p. for 15 weeks): significantly higher
plasma HIV RNA levels lower compared to controls by the end of the study ([3]; HIV BaL chronic infection, 5 mg/kg/day i.p. for 15 weeks, 5 mg/kg/day): 2.1 log10 units and ~ 2 log10 units
increases in CD4/CD8 ratios [3, 10]: no consistent inhibition of plasma HIV RNA or increases in CD4/CD8 ratios
inhibition of plasma HIV RNA [3, 10]: no consistent inhibition of plasma HIV RNA
penetration in brain [4]: favorable penetration in brain
cytotoxicity [5]: not cytotoxic
cytotoxicity [6]: not cytotoxic
inhibition of plasma HIV RNA levels ([7]; 40 mg/kg, previous study): 2 log 10 units
general toxicity ([7]; NSG mice, daily doses between 2.5 and 40 mg/kg): absence of general toxicity
EC50 [8]: 1 µM
EC50 [9]: 0.5 µM
